Laboratory results taken from US8586107B2, “Schisandra sphenanthera fruit extract and cosmetic, dermatological, and nutraceutical compositions comprising same” (Laboratoires Expanscience, priority 2009, dated 2013).
Marks after values point to notes of the source that are not given here.

Legend:
[1] = test system: interleukin-1β (IL-1β) secretion; assay: IL-1β secretion induced by PMA in keratinocytes (ELISA); assay type: cell-based, human
Experimental: (§1) Normal human keratinocytes were preincubated for 24 hours with Schisandra peptides at concentrations of 0.005% and 0.05% or with 10^-7 M dexamethasone (anti-inflammatory reference molecule).
(§2) Inflammation was then induced by treatment with 10 μg/ml PMA for 24 hours, always in the presence of Schisandra peptides or dexamethasone.
(§3) At the end of incubation, the quantities of interleukin-1β (IL-1β), interleukin-8 (IL-8) and interleukin-6 (IL-6) present in the culture supernatants were measured by ELISA.
(§4) In parallel, the number of biologically active cells is determined by a neutral red test. The quantity of cytokine assayed for each condition is reduced to the number of living cells by dividing by the OD540 value obtained at the end of the neutral red test.

[2] = test system: interleukin-8 (IL-8) secretion; assay: IL-8 secretion induced by PMA in keratinocytes (ELISA); assay type: cell-based, human
Experimental: as §1, §2, §3, §4

VEGF secretion = assay: VEGF protein release induced by PMA in keratinocytes (ELISA); assay type: cell-based, human
Experimental: Normal human keratinocytes were preincubated for 24 hours with Schisandra peptides at concentrations of 0.005%, 0.05% and 0.1% or with 10^-7 M dexamethasone (anti-inflammatory reference molecule).
as §2
At the end of incubation, the quantity of VEGF present in the culture supernatants was measured by ELISA.
as §4
The significance of the results was verified by a single-factor analysis of variance followed by a Tukey's test (GraphPad Prism version 5.02 software, GraphPad Software, San Diego, Calif., USA).

[3] = test system: interleukin-6 (IL-6) secretion; assay: IL-6 secretion induced by PMA in keratinocytes (ELISA); assay type: cell-based, human; conditions: for IL-6: keratinocytes
Experimental: as §1, §2, §3, §4

[4] = test system: kallikrein 5 (KLK5) gene expression; assay: KLK5 gene expression induced by calcitriol in keratinocytes (real-time RT-PCR); assay type: cell-based, human; conditions: NHEK, 24 hours
Experimental: (§5) In order to evaluate the potential activity of Schisandra peptides in the inflammatory phase of rosacea, we studied the effect of this complex of active agents on kallikrein 5 (KLK5) and cathelicidin (LL37) gene expression induced by a vitamin D analogue (calcitriol) in keratinocytes.
(§6) Normal human epidermal keratinocytes (NHEK) were cultivated in culture medium supplemented with Ca++ in order to bring them to a state of differentiation.
(§7) The keratinocytes were treated for 24 hours with 0.05% (w/v) Schisandra peptides in the presence or absence of 10^-7 M calcitriol (vitamin D analogue).
(§8) At the end of the treatment, the culture supernatants were eliminated and total RNA extracted using an extraction kit (RNeasy Mini Kit, Qiagen). Total RNA were then assayed in chips using the Experion™ system and the Experion RNA StdSens kit (Bio-Rad) and then reverse-transcribed into cDNA using the iScript cDNA Synthesis kit (Bio-Rad).
(§9) The neo-synthesized cDNA relating to the genes of interest (KLK5 and LL37) or to the reference genes were amplified selectively by real-time PCR on an iQ5 system (Bio-Rad) using SybrGreen technology (iQ SybrGreen kit, Bio-Rad).
(§10) The real-time RT-PCR method enables the relative quantification of the expression level of a gene of interest in relation to that of a reference gene in response to a given treatment.
(§11) The quantitative analysis of the results is based on the collection of threshold cycles.
(§12) The threshold cycle is […] correlated with the initial number of copies of target DNA.
(§13) ΔCt is thus calculated as follows: ΔCt=Cttarget gene−Ctreference gene
(§14) In a second step, the variation, as a function of the treatment and the number of copies of the gene of interest, was determined. ΔΔCt is thus calculated as follows: ΔΔCt=ΔCtcontrol−ΔCttreated
(§15) Lastly, relative quantity (RQ) is calculated: RQ=(1+E)ΔΔCt.
(§16) E (efficiency) is considered equal to 1, and thus: RQ=2ΔΔCt
(§17) The significance of the results was verified for the ΔCt values by a single-factor analysis of variance followed by a Tukey's test (GraphPad Prism version 5.02 software, GraphPad Software, San Diego, Calif., USA).

[5] = test system: cathelicidin (LL37) gene expression; assay: LL37 gene expression induced by calcitriol in keratinocytes (real-time RT-PCR); assay type: cell-based, human; conditions: NHEK, 24 hours
Experimental: as §5, §6, §7, §8, §9, §10, §11, §12, §13, §14, §15, §16, §17

[6] = test system: Normal human dermal microvascular endothelial cells; assay: Endothelial cell proliferation in the absence or presence of VEGF (intracellular phosphatase activity); assay type: cell-based; conditions: 10 ng/ml VEGF
Experimental: Normal human dermal microvascular endothelial cells were incubated for 24 or 48 hours in the absence (control) or presence of Schisandra peptides at concentrations of 0.05% and 0.1% and in the presence and absence of 10 ng/ml vascular endothelial growth factor (VEGF), the reference activator.
At the end of incubation, cell viability was evaluated by a spectrophotometric assay of intracellular phosphatase activity.
Statistical significance was evaluated by a single-factor analysis of variance followed by a Holm-Sidak test.

endothelin production = assay: Endothelin production by dermal microvascular endothelial cells (ELISA); assay type: cell-based, human; conditions: 6 hours, 16.7 nM insulin
Experimental: Endothelin is a neuropeptide with powerful vasoconstrictive activity. It is secreted by endothelial and epithelial cells (keratinocytes), fibroblasts, adipocytes and macrophages. The effect of Schisandra peptides on endothelin production by endothelial cells was studied.
Normal adult human dermal microvascular endothelial cells cultivated in a monolayer were incubated for 6 hours in the absence (control) or the presence of 0.05% and 0.1% Schisandra peptides or 16.7 nM insulin (reference activator).
At the end of the incubation period, secreted endothelin was quantified by ELISA. In parallel, the proteins contained in the cellular lysates were quantified by the Bradford method.
The quantity of endothelin assayed was thus normalized with the quantity of total proteins, and the results were then expressed as the ratio of endothelin (ng) to total protein (μg) in the layer of cells.
The statistical significance of the results was evaluated by a single-factor analysis of variance followed by a Holm-Sidak test.

[7] = 10 μg/ml PMA 24 hours alone (stimulated control)
[8] = 10^-7 M calcitriol alone (stimulated control)
[9] = 10^-7 M calcitriol alone (stimulated control), control cells = 1
[10] = 10−7 M dexamethasone 24 h preincubation + PMA 24 h

Compound: CCCCCCCCCCCCCC(=O)O[C@@H]1[C@@H](C)[C@@]2(O)[C@@H](C=C(CO)C[C@]3(O)C(=O)C(C)=C[C@@H]23)[C@@H]2C(C)(C)[C@]12OC(C)=O [PMA]
- IL-1β [1, 7]: 0.106 ± 0.008 ODELISA-ODneutral red
- IL-8 [2, 7]: 2.056 ± 0.166 pg/ml/ODneutral red
- VEGF (VEGF secretion; [7]): 3333.861 ± 111.766 pg/ml/ODneutral red
- IL-6 [3, 7]: 0.098 ± 0.002 ODELISA/ODneutral red

Compound: C=C1/C(=C\C=C2/CCC[C@]3(C)[C@@H]([C@H](C)CCCC(C)(C)O)CC[C@@H]23)C[C@@H](O)C[C@@H]1O [calcitriol]
- Stimulation of kallikrein 5 gene expression vs. control cells ([4]; 10^-7 M calcitriol): +149%
- Mean ΔCt (CtKLK5 − CtGAPDH) [4, 8]: 2.46
- ΔΔCt (KLK5) [4, 8]: 1.32
- KLK5 expression (RQ) [4, 9]: 2.49$$
- Stimulation of LL37 gene expression vs. control cells ([5]; 10^-7 M calcitriol): +795%
- Mean ΔCt (CtLL37 − CtGAPDH) [5, 8]: 11.01
- ΔΔCt (LL37) [5, 8]: 3.16
- LL37 expression (RQ) [5, 9]: 8.95$$$

Compound: C[C@@H]1C[C@H]2[C@@H]3CCC4=CC(=O)C=C[C@]4(C)[C@@]3(F)[C@@H](O)C[C@]2(C)[C@@]1(O)C(=O)CO [dexamethasone]
- IL-1β [1, 10]: 0.037 ± 0.011 ODELISA-ODneutral red
- IL-8 [2, 10]: 0.973 ± 0.213 pg/ml/ODneutral red
- VEGF (VEGF secretion; 10^−7 M dexamethasone 24 h preincubation + PMA 24 h): 1789.338 ± 489.677 pg/ml/ODneutral red
- IL-6 release, change vs. stimulated control (PMA) ([3]; 10−7 M dexamethasone): −56%***
- IL-6 [3, 10]: 0.043 ± 0.012 ODELISA/ODneutral red

Compound: VEGF
- Endothelial cell growth, stimulation in relation to control cells ([6]; 24 hours): +41.4%
- Endothelial cell growth, stimulation in relation to control cells ([6]; 48 hours): +96.3%

Compound: insulin: reference activator of endothelin production
- Endothelin production, change vs. control cells (endothelin production): +30%
- Endothelin (endothelin production; endothelial cells): 1.72 ± 0.23 ng/μg of proteins
